Reference: US20140296265A1, “Method of Treating Lymphoma Using Pyridopyrimidinone Inhibitors of PI3K/mTOR” (Sanofi, priority 2011, published 2014)

Legend:
[1] = test system: PI3K and MAPK pathways; assay: Pharmacodynamic analyses in paired tumor tissue: phospho-markers; assay type: in vivo, human; details: for % Decrease p4EBP1T70 / % Decrease pAKTS473 / % Decrease pAKTT308 / % Decrease pERKT202/Y204: Mantle Cell Lymphoma, 50 mg BID, PTEN-def
Description: (§1) The secondary objectives were to determine (a) the plasma pharmacokinetics of Compound A continuous daily dosing; and (b) the pharmacodynamic effects of Compound A on tumor tissue. […] This finding is also reflected in FIG. 3, which depicts PTEN IHC and Ki67 IF staining of lymphoma tumor cells treated with Compound A. PTEN expression was evaluated by immunohistochemistry in formalin fixed, paraffin-embedded tissue sections FFPE (5 micron) with anti-PTEN antibody (NCL-PTEN, clone 28H6, diluted 1/300, Novocastra Laboratories Ltd) utilizing standardized procedures. Cryopreserved tumor biopsy samples were serially sectioned at 5 microns and converted in FFPE sections.

[2] = Phase 1 dose-expansion lymphoma cohort: safety and tolerability; assay type: in vivo, human
Text: The following phase 1 study was designed to evaluate the safety and pharmacokinetics of Compound A administered as a continuous daily dosing regimen in an expansion cohort of subjects with relapsed or refractory lymphoma.
(§2) This was a Phase 1, open-label, non-randomized trial of Compound A given orally as a single agent in subjects with lymphoma. The maximum tolerated dose expansion cohort planned enrollment was at least 15 subjects.
The primary objective was to determine the safety and tolerability of Compound A administered orally, twice daily, as a continuous daily dosing regimen to subjects with relapsed or refractory lymphoma.
(§3) The key eligibility include the following: • Histologically confirmed diagnosis of relapsed or refractory lymphoma • Measureable disease • Adequate bone marrow function defined as: • ANC≧1000/mm3 (chronic lymphocytic leukemia with ANC≧500/mm3) • Platelets≧30,000/mm3 • Hemoglobin≧8 g/dL • Availability of archival or fresh tumor tissue • No prior therapy with a selective PI3K inhibitor • Written informed consent.

[3] = Phase 1 dose-escalation study: safety and tolerability (MTD, adverse events); assay type: in vivo
Description: (§4) A Phase I, non-randomized, open-label, dose-escalation study was conducted for Compound A using two dosing schedules to evaluate the safety, PK, and pharmacodynamics of Compound A in subjects with solid tumors or lymphoma.
Patients were treated with a conventional ‘3+3’ dose-escalation design with cohorts of three to six subjects for up to nine different dose levels on each dosing schedule.
(§5) Patients received 5, 10 or 50 mg of Compound A either twice daily (bid) or daily (qd) for 28-day cycles. Pharmacokinetics and pharmacodynamic analyses were performed, and tumor response was assessed every 8 weeks.

[4] = Phase 1 dose-escalation study: plasma pharmacokinetics; assay type: in vivo, human
Description: as §4, §5

[5] = test system: PI3K and ERK pathway signaling; assay: Phase 1 dose-escalation study: pharmacodynamics in paired tumor biopsies; assay type: in vivo, human
Description: as §4, §5

[6] = test system: relapsed or refractory lymphoma; assay: Phase 1 dose-expansion lymphoma cohort: best response; assay type: in vivo, human
Text: as §2
The exploratory objectives were to determine (a) the pharmacodynamic effects of Compound A in subjects with lymphoma; (b) the preliminary efficacy data (response rate) for Compound A; and (c) the long-term safety and tolerability of Compound A after repeated twice daily administration.
as §3

[7] = test system: solid tumors or lymphoma; assay: Phase 1 dose-escalation study: tumor response; assay type: in vivo, human
Description: as §4, §5

[8] = human, in vivo, 50 mg, 27 day
Text: The secondary objectives were to determine (a) the plasma pharmacokinetics of Compound A continuous daily dosing; and (b) the pharmacodynamic effects of Compound A on tumor tissue.

[9] = test system: mantle cell lymphoma tumor; assay: Pharmacodynamic analyses in paired tumor tissue: Ki67 and TUNEL; assay type: in vivo, human
Description: as §1

[10] = lymphoma cohort, sixteen subjects
[11] = paired biopsies of diverse solid tumors, five patients, 50 mg bid
[12] = Diffuse Large B-cell Lymphoma, n 2, twice daily continuous dosing
[13] = Follicular Lymphoma, n 4, twice daily continuous dosing
[14] = Mantle Cell Lymphoma, n 5, twice daily continuous dosing
[15] = Mantle Cell Lymphoma, 50 mg BID, D 56 post dose, PTEN-def

SMILES: CCn1c(=O)c(-c2ccn[nH]2)cc2c(C)nc(N)nc21 [Compound A, 2-amino-8-ethyl-4-methyl-6-(1H-pyrazol-5-yl)pyrido[2,3-d]pyrimidin-7(8H)-one]
- % Decrease p4EBP1T70 ([1]; D 27 post dose): 60%
- % Decrease pAKTS473 ([1]; D 27 post dose): 70%
- % Decrease pAKTT308 ([1]; D 27 post dose): 65%
- % Decrease pERKT202/Y204 ([1]; D 27 post dose): 15%
- % Decrease p4EBP1T70 ([1]; D 56 post dose): 60%
- % Decrease pAKTS473 ([1]; D 56 post dose): 73%
- % Decrease pAKTT308 ([1]; D 56 post dose): 88%
- % Decrease pERKT202/Y204 ([1]; D 56 post dose): 74%
- inhibition of the PI3K and MAPK pathways ([1]; mantle cell lymphoma tumor): robust inhibition of the PI3K and MAPK pathways
- ALT increased, All Adverse Events, All Grades ([2]; human, in vivo): 3 (19) n (%)
- ALT increased, All Adverse Events, Grade ≧ 3 ([2]; human, in vivo): 2 (13) n (%)
- ALT increased, Related Adverse Events, All Grades ([2]; human, in vivo): 3 (19) n (%)
- ALT increased, Related Adverse Events, Grade ≧ 3 ([2]; human, in vivo): 2 (13) n (%)
- AST increased, All Adverse Events, All Grades ([2]; human, in vivo): 4 (25) n (%)
- AST increased, All Adverse Events, Grade ≧ 3 ([2]; human, in vivo): 0 n (%)
- AST increased, Related Adverse Events, All Grades ([2]; human, in vivo): 3 (19) n (%)
- AST increased, Related Adverse Events, Grade ≧ 3 ([2]; human, in vivo): 0 n (%)
- Anemia, All Adverse Events, All Grades ([2]; human, in vivo): 3 (19) n (%)
- Anemia, All Adverse Events, Grade ≧ 3 ([2]; human, in vivo): 2 (13) n (%)
- Anemia, Related Adverse Events, All Grades ([2]; human, in vivo): 1 (6) n (%)
- Anemia, Related Adverse Events, Grade ≧ 3 ([2]; human, in vivo): 0 n (%)
- Asthenia, All Adverse Events, All Grades ([2]; human, in vivo): 3 (19) n (%)
- Asthenia, All Adverse Events, Grade ≧ 3 ([2]; human, in vivo): 2 (13) n (%)
- Asthenia, Related Adverse Events, All Grades ([2]; human, in vivo): 0 n (%)
- Asthenia, Related Adverse Events, Grade ≧ 3 ([2]; human, in vivo): 0 n (%)
- Creatinine increased, All Adverse Events, All Grades ([2]; human, in vivo): 3 (19) n (%)
- Creatinine increased, All Adverse Events, Grade ≧ 3 ([2]; human, in vivo): 0 n (%)
- Creatinine increased, Related Adverse Events, All Grades ([2]; human, in vivo): 0 n (%)
- Creatinine increased, Related Adverse Events, Grade ≧ 3 ([2]; human, in vivo): 0 n (%)
- Diarrhea, All Adverse Events, All Grades ([2]; human, in vivo): 6 (38) n (%)
- Diarrhea, All Adverse Events, Grade ≧ 3 ([2]; human, in vivo): 0 n (%)
- Diarrhea, Related Adverse Events, All Grades ([2]; human, in vivo): 3 (19) n (%)
- Diarrhea, Related Adverse Events, Grade ≧ 3 ([2]; human, in vivo): 0 n (%)
- Discontinuations of treatment: Adverse event ([2]; human, in vivo): 2 (13) n (%)
- Dose modification due to treatment-related toxicities: AST/ALT increase ([2]; human, in vivo): 2 (40) n (%)
- Dose modification due to treatment-related toxicities: Amylase increase ([2]; human, in vivo): 1 (20) n (%)
- Dose modification due to treatment-related toxicities: Nausea ([2]; human, in vivo): 2 (40) n (%)
- Fatigue, All Adverse Events, All Grades ([2]; human, in vivo): 3 (19) n (%)
- Fatigue, All Adverse Events, Grade ≧ 3 ([2]; human, in vivo): 1 (6) n (%)
- Fatigue, Related Adverse Events, All Grades ([2]; human, in vivo): 1 (6) n (%)
- Fatigue, Related Adverse Events, Grade ≧ 3 ([2]; human, in vivo): 0 n (%)
- Hyperglycemia, All Adverse Events, All Grades ([2]; human, in vivo): 3 (19) n (%)
- Hyperglycemia, All Adverse Events, Grade ≧ 3 ([2]; human, in vivo): 0 n (%)
- Hyperglycemia, Related Adverse Events, All Grades ([2]; human, in vivo): 1 (6) n (%)
- Hyperglycemia, Related Adverse Events, Grade ≧ 3 ([2]; human, in vivo): 0 n (%)
- Nausea, All Adverse Events, All Grades ([2]; human, in vivo): 5 (31) n (%)
- Nausea, All Adverse Events, Grade ≧ 3 ([2]; human, in vivo): 0 n (%)
- Nausea, Related Adverse Events, All Grades ([2]; human, in vivo): 5 (31) n (%)
- Nausea, Related Adverse Events, Grade ≧ 3 ([2]; human, in vivo): 0 n (%)
- Patients requiring dose modification due to toxicity ([2]; human, in vivo): 12 (75) n (%)
- Patients requiring dose modification due to treatment-related toxicities ([2]; human, in vivo): 5 (31) n (%)
- Pyrexia, All Adverse Events, All Grades ([2]; human, in vivo): 4 (25) n (%)
- Pyrexia, All Adverse Events, Grade ≧ 3 ([2]; human, in vivo): 0 n (%)
- Pyrexia, Related Adverse Events, All Grades ([2]; human, in vivo): 0 n (%)
- Pyrexia, Related Adverse Events, Grade ≧ 3 ([2]; human, in vivo): 0 n (%)
- Discontinuations of treatment ([2]; in vivo): 14 (88) n (%)
- tolerability ([2]; in vivo): well tolerated
- Discontinuations of treatment: Death (unrelated to study drug) [2, 10]: 1 (6) n (%)
- Discontinuations of treatment: Progressive disease [2, 10]: 8 (50) n (%)
- maximum tolerated dose (MTD) ([3]; bid schedule): 50 mg
- most common related adverse events ([3]; in vivo): nausea, diarrhea, anorexia, elevated liver enzymes, skin and subcutaneous disorders, and vomiting
- tolerability ([3]; in vivo): generally well-tolerated
- maximum tolerated dose (MTD) ([3]; qd schedule): 90 mg
- exposure versus dose ([4]; bid and qd schedules): increase with increasing dose
- half-life ([4]; human, plasma, oral, at steady-state, read-out: Mean t1/2,z): 3 to 9 h
- Tmax ([4]; human, plasma, oral, post-dose, read-out: Median tmax): 1 to 3 h
- post-dose reduction in p4EBP1 [5, 11]: 62-80%
- post-dose reduction in pAKT-T308 [5, 11]: 57-71%
- post-dose reduction in pERK [5, 11]: 53-80%
- pharmacodynamic modulation of PI3K and ERK pathway signaling ([5]; tumors and surrogate tissues, repeat-dose administration): Robust pharmacodynamic modulation
- Best Response: subjects with Partial Response [6, 12]: 1
- Best Response: subjects with Progressive Disease [6, 12]: 1
- Best Response: subjects with Progressive Disease [6, 13]: 1
- Best Response: subjects with Stable Disease [6, 13]: 3
- Best Response: subjects with Stable Disease ([6]; Hodgkin's Lymphoma, n 1, twice daily continuous dosing): 1
- Best Response: subjects with Partial Response [6, 14]: 1^b
- Best Response: subjects with Progressive Disease [6, 14]: 1
- Best Response: subjects with Stable Disease [6, 14]: 3 c
- Best Response: subjects with Partial Response ([6]; Transformed Lymphoma, n 1, twice daily continuous dosing): 1 days
- patients on study for ≧16 weeks ([7]; in vivo): Eleven
- patients on treatment for ≧24 weeks ([7]; in vivo): seven
- tumor response ([7]; one patient with mantle cell lymphoma, treated for 12 cycles): one partial response in MCL
- activity in solid tumor patients ([7]; solid tumor patients): prolonged disease stabilization
- accumulation (AUCtau) on day 27 [8]: approximately 3 fold
- % Decrease Ki67 ([9]; Mantle Cell Lymphoma, 50 mg BID, D 27 post dose, PTEN-def): 98%
- % Decrease Ki67 [9, 15]: 99%
- TUNEL (fold increase) [9, 15]: 1.5 fold
- inhibition of Ki67 proliferation ([9]; mantle cell lymphoma tumor): near complete inhibition of Ki67 proliferation
